# From US7786117B2, “Therapeutic substituted thiazolidinones, oxazolidinones, and related compounds” (Allergan, Inc., priority 2008, dated 2010)
# Tested on: lashes and adjacent hairs of the eyelids
# Assay: Observation of lash and hair growth in glaucoma patients treated with bimatoprost in only one eye
# Assay type: in vivo, human
# Source text: In the course of treating patients having glaucoma, treatment may only be appropriate in one eye. […] The lash appearance on the lids of the treated eyes would have appeared quite attractive if it represented a bilateral phenomenon. As a result of its asymmetric nature, the long lashes on one side could be construed as disturbing from a cosmetic standpoint. A systemic examination was preformed as a result of the asymmetric phenomenon. It soon became apparent that this altered appearance was not an isolated finding.
# The changes in the lashes were apparent on gross inspection in several patients once attention was focused on the issue. In those with light colored hair and lashes, the differences were only seen easily with the aid of the high magnification and lighting capabilities of the slit lamp biomicroscope. In the course of glaucoma follow-up examination, attention is generally immediately focused on the eye itself. As a result of the high power magnification needed only one eye is seen at a time and the eye is seen at a high enough power that the lashes are not in focus. At these higher powers, any lash asymmetry between the two eyes is not likely to be noticed except by careful systematic comparison of the lashes and adjacent hairs of the eyelids of the two eyes.
# Observed parameters leading to the conclusion that more robust hair growth occurred in the treatment area following administration of the prostaglandin analogue were multiple. They included increased length of lashed, increased number of lashes along the normal lash line, increased thickness and luster of lashes, increased auxiliary lash-like terminal hair in transitional areas adjacent to areas of normal lash growth, increased auxiliary lash-like terminal hairs at the medial and lateral canthal area, increased pigmentation of the lashes, increased numbers, increased length, as well as increased luster, and thickness of fine hair on the skin of the adjacent lid, and finally, increased perpendicular angulation of lashes and lash-like terminal hairs.
compound,measurement,setting,value
CCNC(=O)CCC/C=C\C[C@@H]1[C@@H](/C=C/[C@@H](O)CCc2ccccc2)[C@H](O)C[C@@H]1O [bimatoprost],lash appearance in the treated eye versus the non-treated eye,a glaucoma patient treated in one eye only,"longer, thicker, and fuller in the treated eye than in the non-treated eye"
same,differences in the lashes and adjacent hairs of the treated side,all patients taking the drug on a unilateral basis for longer than 6 months,Definite differences could be identified to varying degrees
same,"hair growth in treated versus control areas, multiple parameters of hair appearance","many subjects, length, number, thickness, luster, pigmentation, angulation of lashes",hair growth is stimulated
